In general, EC50 refers to the midpoint of the concentration-response curve.

Results on three compounds are retold here after ChEMBL document CHEMBL1130702, “Novel cytotoxic diterpenes from the stem of Dysoxylum kuskusense” (Bioorg Med Chem Lett, 1998).

Structures are written as SMILES.

Common to all, as to assay type: functional, cell-based
Holding throughout (conditions): Homo sapiens

One assay relates to NCI-H522. Nature of the assay: Compound was tested for cytotoxicity against NCI-H522 (lung tumor)cell line.
Assay [1] has as its system HL-60. As to the kind of experiment: Compound was tested for cytotoxicity against HL-60 (TB) cell line.
Another assay has as its system K562. Nature of the assay: Compound was tested for cytotoxicity against K-562 (leukemia) cell line.
In assay [2] the test system is HL-60. As to the kind of experiment: Compound was tested for cytotoxicity against HL-60(TB) leukemia tumor cell line.

Turning to `CC1=CC(=O)C[C@]2(C)CC[C@@H](C(C)CC(=O)CC(C)C)C[C@@H]12` (stereo not given in full), the EC50 in the assay with NCI-H522 was determined as 4.8 µM; in the assay with HL-60 [1], 2.25 µM; in the assay with K562 it was 5.04 µM. Regarding `CC1=CC(=O)C[C@]2(C)CC[C@@H](C(C)CC(=O)CC(C)C)C[C@@]12OO` (stereo not given in full), the 50% effective concentration (EC50) in the assay on HL-60 [2] came to 6.35 µM. Still for that read-out and setting: the figure for `CC1=CC(=O)C[C@@]2(C)CC[C@@H](C(C)CC(=O)CC(C)C)C[C@@]12OO` (stereo not given in full) is 2.37 µM.
